We go through one compound from article PMC4117522, “Proteasome Inhibitors Alter Levels of Intracellular Peptides in HEK293T and SH-SY5Y Cells” (PLoS ONE, 2014).

In test [1] the test system is HEK293T cell aminopeptidase activity (Ala-AMC cleavage). Description: Aminopeptidase assay with Ala-AMC in HEK293T cell extracts. In kind it is biochemical, human. To be noted: HEK293T cell extract, 10 µM inhibitor. As for the experimental part: (§1) All enzyme assays described below were performed in the linear range of the assay, as determined from time-course studies. HEK293T cells were lysed by sonication in 50 mM TrisHCl buffer, pH 7.5, containing 40 mM KCl, 5 mM MgCl2, 0.5 mM ATP, and 1 mM DTT (Buffer 1).
(§2) To measure TPP2, the fluorescent substrate was Ala-Ala-Phe-AMC. Aminopeptidase (AP) assays were performed with Leu-AMC and Ala-AMC, which detect leucine aminopeptidase (LAP), puromycin-sensitive aminopeptidase (PSAP), and other enzymes. To measure the effect of aminopeptidase/proteasome inhibitors on cleavage of Ala-Ala-Phe-AMC and Leu-AMC, 1∶50 dilution of the cell extract was pre-incubated with the inhibitor and Buffer 1 for 30 min, followed by addition of 100 µM final concentration of the respective substrate. For Ala-AMC, the same dilution of the cell extract was pre-incubated with the inhibitor and 50 mM MOPS buffer, pH 7.5, containing 40 mM KCl, 5 mM MgCl2, 0.5 mM ATP, and 1 mM DTT (Buffer 2), followed by addition of 100 µM final concentration of the substrate. After incubation at 37°C for 1 hour, enzyme activity was quantified by fluorescence measurement of the substrate (380 nm excitation, 460 nm emission).
(§3) Figure 7 Effect of aminopeptidase inhibitors on Ala-AMC and Leu-AMC cleavage. HEK 293T cell extract (panels A–D) or recombinant PSAP (panels E–F) were treated with increasing concentrations of bestatin or puromycin for 30 minutes followed by the addition of substrate and incubation for 1 hour. Enzyme activity was determined by fluorescence measurement of AMC and expressed as percentage enzyme activity relative to the control without inhibitor. (A) Bestatin inhibition of HEK293T cell extract assayed with Ala-AMC. (B) Bestatin inhibition of HEK293T cell extract assayed with Leu-AMC. (C) Puromycin inhibition of HEK293T cell extract assayed with Ala-AMC. (D) Puromycin inhibition of HEK293T cell extract assayed with Leu-AMC. (E) Puromycin inhibition of purified PSAP assayed with Ala-AMC. (F) Puromycin inhibition of purified PSAP assayed with Leu-AMC. Error bars show standard error of mean (n = 4), points without error bars had error ranges smaller than the symbol size. Statistical analysis was performed using Student’s t-test: *, p≤0.05; **, p≤0.01; ***, p≤0.001; ns, no significant difference (p>0.05) versus the control.
(§4) Figure 8 Effect of proteasome inhibitors on Ala-AMC and Leu-AMC cleavage. HEK 293T cell extract or recombinant PSAP was treated with 10 µM of each of the proteasome inhibitors for 1 hour in addition to a 30 min pre-incubation without the substrate. Enzyme activity was determined by fluorescence measurement of AMC and expressed as percentage enzyme activity relative to the control without inhibitor. Panels A and B represent the effect of proteasome inhibitors on cleavage of Ala-AMC and Leu-AMC respectively, in HEK293T cell extract. […] Error bars show standard error of mean (n = 4). Statistical analysis was performed using Student’s t-test: *, p≤0.05; **, p≤0.01; ***, p≤0.001; ns, no significant difference (p>0.05) versus the control.

In test [2] the test system is HEK293T cell aminopeptidase activity (Leu-AMC cleavage). Description: Aminopeptidase assay with Leu-AMC in HEK293T cell extracts. In kind it is biochemical, human. As to conditions: HEK293T cell extract, 10 µM inhibitor. As for the experimental part: as §1, §2, §3, §4

On to `CN1C/C(=C/c2ccc(B(O)O)cc2)C(=O)/C(=C\c2ccc(B(O)O)cc2)C1` [AM114, reference compound], for which the “effect on cleavage of Ala-AMC” value in test [1] is “without effect”. Besides, the “effect on cleavage of Leu-AMC” value in test [2] was “without effect”.
